Data set [1] concerns cholesterol absorption (uptake of 14C-cholesterol by the liver). The experiment in a line: Cholesterol absorption test: uptake of 14C-cholesterol by the liver. It is filed as in vivo, NMRI mice. The following applies: dose at which uptake of 14C-cholesterol by the liver is halved vs control group; mouse, peroral.
Data set [2] can be described thus: Solubility in aqueous buffers, FaSSIF and FeSSIF (HPLC/UV). It is filed as physicochemical. The following applies: for solubility at 4 h: 25 °C, thermodynamic from solid. The method, then:
FaSSIF (fasted State Simulating Intestinal Fluid) and FeSSIF (Fed State Simulating Intestinal Fluid) media which reflect the pH/solubilization conditions in the upper small intestine in the pre- and postprandial state, respectively, were used to test this improved solubility.
0.5 mg of the compound to be tested was weighed exactly into an Eppendorf cap, and 0.5 ml of the solvent in question (aqueous buffer) was added. The Eppendorf cap was then introduced into a thermomixer and, at 25° C., shaken at 1 400 rpm for 4 hours.
The Eppendorf cap was then introduced into a centrifuge. Following centrifugation, an aliquot of the supernatant was used to determine the amount dissolved, using HPLC/UV analysis.

Data set [3] in a line: Stability in solution in aqueous buffers (HPLC/UV). The following applies: for Increase of the area of the impurities in percent: 24 hours at 37° C. It counts as physicochemical. The method, then:
The stability of dissolved compound I and of dissolved C1 was determined in aqueous buffers in the pH range 1.2-8.0. 1 mg of the compound in question was weighed into a 5 ml measuring flask. A small amount of acetonitrile was used to dissolve the substance. The flask was then filled up to the mark with the aqueous buffer. The precipitated compound was centrifuged and the clear supernatant was then tested for stability in solution for 24 hours at 37° C. The samples were evaluated using HPLC/UV.

Setting [4] is: FaSSIF, repetition of the tests.
Where [5] appears, read: FeSSIF, repetition of the tests.
Where [6] appears, read: aqueous buffer, pH 1.2, simulated gastric fluid, pH 1.2 aqueous buffer, 4 hours.
The mark [7] stands for this setting: aqueous buffer, pH 4.5, aqueous buffer, 4 hours.
[8] abbreviates: aqueous buffer, pH 6.8, aqueous buffer, 4 hours.
[9] abbreviates: aqueous buffer, pH 8, aqueous buffer, 4 hours.
The mark [10] stands for this setting: based on an available volume of 250 ml (Biopharmaceutical Classification System), best case.

≈ marks a conversion by molar mass, not a printed value. Some results are limits rather than exact numbers.

Take `COc1ccc([C@@H]2[C@@H](CC[C@H](O)c3ccc(F)cc3)C(=O)N2c2ccc(CNC(=O)CCCCCCCCCCC(=O)NC[C@H](O)[C@@H](O)[C@H](O)[C@H](O)CO)cc2)cc1` [Example I, dodecanedioic acid 4-[(2S,3R)-3-[(S)-3-(4-fluorophenyl)-3-hydroxypropyl]-2-(4-methoxyphenyl)-4-oxoazetidin-1-yl]benzylamide ((2S,3R,4R,5R)-2,3,4,5,6-pentahydroxyhexyl)amide]: the “ED50 (liver)” value in data set [1] is 0.005 mg/mouse. Also, the solubility at 4 h in data set [2] (FaSSIF, 4 hours) was 28 µg/mL (≈ 34.6 µM); in data set [2] (setting [4]), 43 µg/mL (≈ 53.1 µM); in data set [2] (FeSSIF, 4 hours), 454 µg/mL (≈ 561 µM); in data set [2] (setting [5]), 290 µg/mL (≈ 358 µM); in data set [2] (setting [6]) it was 3 µg/mL (≈ 3.7 µM); in data set [2] (setting [7]), 4 µg/mL (≈ 4.94 µM). For the same molecule, the solubility at 4 h was found to be 2 µg/mL (≈ 2.47 µM) in data set [2] (setting [8]); 2 µg/mL (≈ 2.47 µM) in data set [2] (setting [9]); 3 µg/mL (≈ 3.7 µM) in data set [2] (water, shaken 4 hours). In addition, in data set [2] (Water, 25° C., shaken 4 hours), the “pH of the water sample (Water (pH))” value amounted to 6.8. The same molecule showed a soluble dose in data set [2] (setting [10]) of approximately 100 mg. For the same molecule, in data set [3] (depending on the pH, relative to C1), the “times more stable than C1” value is on record as “at least 2.7 times”. In addition, the results for the “Increase of the area of the impurities in percent” value in data set [3] (pH 1.2), in data set [3] (pH 6.8) and in data set [3] (pH 8.0) were 4.9%, 0% and 0.2%, respectively.

On to `COc1ccc([C@@H]2[C@@H](CC[C@H](O)c3ccc(F)cc3)C(=O)N2c2ccc(CNC(=O)CCCCCCCCCCCNC(=O)[C@H](O)[C@@H](O)[C@H](O)[C@H](O)CO)cc2)cc1` [Example C1, reference compound], for which the solubility at 4 h is 5 µg/mL (≈ 6.17 µM) in data set [2] (FaSSIF, 4 hours); 6 µg/mL (≈ 7.41 µM) in data set [2] (setting [4]); 18 µg/mL (≈ 22.2 µM) in data set [2] (FeSSIF, 4 hours); 20 µg/mL (≈ 24.7 µM) in data set [2] (setting [5]); less than 1 µg/mL in data set [2] (setting [6]); less than 1 µg/mL in data set [2] (setting [7]). Besides, the solubility at 4 h in data set [2] (setting [8]) was less than 1 µg/mL; in data set [2] (setting [9]), less than 1 µg/mL; in data set [2] (water, shaken 4 hours), less than 1 µg/mL. Moreover, the soluble dose is on record as approximately 5 mg in data set [2] (setting [10]) and 1.25 mg in data set [2] (based on an available volume of 250 ml, worst case). Besides, the “Increase of the area of the impurities in percent” value stood at 13.3% in data set [3] (pH 1.2), 0.5% in data set [3] (pH 6.8) and 4.6% in data set [3] (pH 8.0).
